Results taken from the supplement of paper PMC5908809.

Assays:
[1] = system: normal NK cells expanded with K562-aAPC; assay: percent inhibition of viability; higher = more inhibition; conditions: 72 h, IL-2 2.5 ng/mL
Protocol: (§1)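 Drug sensitivity and resistance testing on K562-aAPC-expanded normal NK cells: 5 concentrations (10-fold steps over a 10,000-fold range), 72 h at 37 °C, viability by CellTiter-Glo normalised to DMSO and benzethonium chloride controls; DSS from the fitted curve.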

DERL-7 (IL-2 2.5 ng/mL) [2] = assay: as above; conditions: 72 h
IMC-1 (IL-2 20 ng/mL) [3] = assay: as above; conditions: 72 h
KAI3 (IL-2 2.5 ng/mL) [4] = assay: as above; conditions: 72 h
KHYG-1 (IL-2 2.5 ng/mL) [5] = assay: as above; conditions: 72 h
NK-92 (IL-2 2.5 ng/mL) [6] = assay: as above; conditions: 72 h
NK-YS (IL-2 2.5 ng/mL) [7] = assay: as above; conditions: 72 h
NKL (IL-2 2.5 ng/mL) [8] = assay: as above; conditions: 72 h
SNK-6 (IL-2 2.5 ng/mL) [9] = assay: as above; conditions: 72 h
YT (IL-2 2.5 ng/mL) [10] = assay: as above; conditions: 72 h
[11] = system: normal primary NK cells, pool 1 (3 donors) (IL-2 2.5 ng/mL); assay: as above; conditions: 72 h
[12] = system: normal primary NK cells, pool 1 (3 donors), resting (IL-2 0 ng/mL); assay: as above; conditions: 72 h
[13] = system: normal primary NK cells, pool 2 (3 donors) (IL-2 2.5 ng/mL); assay: as above; conditions: 72 h
[14] = system: normal primary NK cells, pool 3 (3 donors) (IL-2 2.5 ng/mL); assay: as above; conditions: 72 h
[15] = system: normal NK cells expanded with K562-aAPC; assay: drug sensitivity score (DSS) (DSS units); higher = more sensitive; extreme values may be limits of the assay; conditions: 72 h; IL-2 2.5 ng/mL
Protocol: as §1

DERL-7 (IL-2 2.5 ng/mL) [16] = assay: as above; conditions: 72 h
IMC-1 (IL-2 20 ng/mL) [17] = assay: as above; conditions: 72 h
KAI3 (IL-2 2.5 ng/mL) [18] = assay: as above; conditions: 72 h
KHYG-1 (IL-2 2.5 ng/mL) [19] = assay: as above; conditions: 72 h
NK-92 (IL-2 2.5 ng/mL) [20] = assay: as above; conditions: 72 h
NK-YS (IL-2 2.5 ng/mL) [21] = assay: as above; conditions: 72 h
NKL (IL-2 2.5 ng/mL) [22] = assay: as above; conditions: 72 h
SNK-6 (IL-2 2.5 ng/mL) [23] = assay: as above; conditions: 72 h
YT (IL-2 2.5 ng/mL) [24] = assay: as above; conditions: 72 h
[25] = system: normal primary NK cells, pool 1 (3 donors) (IL-2 2.5 ng/mL); assay: as above; conditions: 72 h
[26] = system: normal primary NK cells, pool 1 (3 donors), resting (IL-2 0 ng/mL); assay: as above; conditions: 72 h
[27] = system: normal primary NK cells, pool 2 (3 donors) (IL-2 2.5 ng/mL); assay: as above; conditions: 72 h
[28] = system: normal primary NK cells, pool 3 (3 donors) (IL-2 2.5 ng/mL); assay: as above; conditions: 72 h

COc1nc(N)nc2c1ncn2[C@@H]1O[C@H](CO)[C@@H](O)[C@@H]1O [Nelarabine] (max concentration tested 10000 nM)
percent inhibition of viability [%]
Conditions	1 nM	10 nM	100 nM	1000 nM	10000 nM
DERL-7 (IL-2 2.5 ng/mL) [2]	1.44	7.77	2.31	12.4	46.1
IMC-1 (IL-2 20 ng/mL) [3]	-3.75	-1.52	-5.24	-11.7	-10.4
KAI3 (IL-2 2.5 ng/mL) [4]	15.6	16.4	12.6	25.8	53.3
KHYG-1 (IL-2 2.5 ng/mL) [5]	4.68	-0.73	-1.55	-1.11	27.2
NK-92 (IL-2 2.5 ng/mL) [6]	8.71	-6.85	4.79	8.69	32
NK-YS (IL-2 2.5 ng/mL) [7]	2.42	-3.62	0.15	3.98	14.6
NKL (IL-2 2.5 ng/mL) [8]	5.77	8.18	3.83	10.4	56.7
SNK-6 (IL-2 2.5 ng/mL) [9]	2.48	-13.9	-9.19	-25.6	-2.36
YT (IL-2 2.5 ng/mL) [10]	2.6	-3.18	0.56	1.65	5.92
[1]	0.53	1.13	1.94	15.5	66.8
[11]	-10.4	-4.07	23.9	61.1	92.1
[12]	14.4	22.7	58.9	88.3	91.7
[13]	-2.48	5	21.2	59.8	82.4
[14]	11.4	8.39	27.7	65.5	82.3

Conditions	drug sensitivity score
DERL-7 (IL-2 2.5 ng/mL) [16]	4.29
IMC-1 (IL-2 20 ng/mL) [17]	0
KAI3 (IL-2 2.5 ng/mL) [18]	8.27
KHYG-1 (IL-2 2.5 ng/mL) [19]	1.02
NK-92 (IL-2 2.5 ng/mL) [20]	2.5
NK-YS (IL-2 2.5 ng/mL) [21]	0.54
NKL (IL-2 2.5 ng/mL) [22]	4.79
SNK-6 (IL-2 2.5 ng/mL) [23]	0
YT (IL-2 2.5 ng/mL) [24]	0
[15]	6.13
[25]	14.4
[26]	25.3
[27]	13.8
[28]	15.7

O=C(O)CC[C@H]1CC[C@@](c2cc(F)ccc2F)(S(=O)(=O)c2ccc(Cl)cc2)CC1 [MK-0752] (max concentration tested 1000 nM)
percent inhibition of viability [%]
Conditions	0.1 nM	1 nM	10 nM	100 nM	1000 nM
DERL-7 (IL-2 2.5 ng/mL) [2]	-0.82	-1.19	-2.01	-1.84	0.38
IMC-1 (IL-2 20 ng/mL) [3]	-1.19	-1.62	3.7	1.88	9.87
KAI3 (IL-2 2.5 ng/mL) [4]	-5.58	-3.61	-11.2	-10.3	10.8
KHYG-1 (IL-2 2.5 ng/mL) [5]	2.68	-1.92	2.12	-1.77	2.96
NK-92 (IL-2 2.5 ng/mL) [6]	-10.8	-16	2.19	-18.6	9.52
NK-YS (IL-2 2.5 ng/mL) [7]	1.77	3.33	4.23	-0.52	12.9
NKL (IL-2 2.5 ng/mL) [8]	-5.92	-6.47	1.23	0.27	-0.85
SNK-6 (IL-2 2.5 ng/mL) [9]	-1.33	10	0.79	21.6	11.5
YT (IL-2 2.5 ng/mL) [10]	-5.65	-0.71	-6.38	-14.1	8.32
[1]	-3.97	0.91	0.33	10.8	16.2
[11]	1.14	-1.74	-0.83	-10.7	3.87
[12]	-1.4	-17	-8.36	-13.1	-7.22
[13]	-9.74	-4.15	-0.03	-3.82	-3.17
[14]	-11.6	-7.52	0.99	-5.48	3.93

Conditions	drug sensitivity score
DERL-7 (IL-2 2.5 ng/mL) [16]	0
IMC-1 (IL-2 20 ng/mL) [17]	0
KAI3 (IL-2 2.5 ng/mL) [18]	0
KHYG-1 (IL-2 2.5 ng/mL) [19]	0
NK-92 (IL-2 2.5 ng/mL) [20]	0
NK-YS (IL-2 2.5 ng/mL) [21]	0.08
NKL (IL-2 2.5 ng/mL) [22]	0
SNK-6 (IL-2 2.5 ng/mL) [23]	1.21
YT (IL-2 2.5 ng/mL) [24]	0
[15]	1.1
[25]	0
[26]	0
[27]	0
[28]	0

O=C(CCCCCCC(=O)Nc1ccc([C@H]2O[C@@H](CSc3nc(-c4ccccc4)c(-c4ccccc4)o3)C[C@@H](c3ccc(CO)cc3)O2)cc1)NO [Tubacin] (max concentration tested 10000 nM)
percent inhibition of viability [%]
Conditions	1 nM	10 nM	100 nM	1000 nM	10000 nM
DERL-7 (IL-2 2.5 ng/mL) [2]	-2.36	4.2	7.74	19.8	86.6
IMC-1 (IL-2 20 ng/mL) [3]	-1.32	0.91	3.12	6.34	99
KAI3 (IL-2 2.5 ng/mL) [4]	-2.25	-0.51	-0.15	12	87.7
KHYG-1 (IL-2 2.5 ng/mL) [5]	-2.84	-3.16	1.24	0.88	84.9
NK-92 (IL-2 2.5 ng/mL) [6]	-7.58	4.48	12.8	18.2	74.3
NK-YS (IL-2 2.5 ng/mL) [7]	-6.18	-3.18	-0.57	4.16	93.2
NKL (IL-2 2.5 ng/mL) [8]	-14.5	-0.93	-1.27	28.3	86.2
SNK-6 (IL-2 2.5 ng/mL) [9]	-5.06	2.23	22.3	16.9	89.8
YT (IL-2 2.5 ng/mL) [10]	0.56	0.68	3.58	5.84	88.3
[1]	-0.3	4.86	3.67	7.82	40.4
[11]	2.38	1.13	3.02	-4.6	47.5
[12]	-6.72	-11.8	5.02	-11.8	77.7
[13]	-4.13	-4.61	0.44	0.6	24
[14]	-6.56	-3.63	5.33	-0.47	15.8

Conditions	drug sensitivity score
DERL-7 (IL-2 2.5 ng/mL) [16]	7.93
IMC-1 (IL-2 20 ng/mL) [17]	6.44
KAI3 (IL-2 2.5 ng/mL) [18]	6.87
KHYG-1 (IL-2 2.5 ng/mL) [19]	4.84
NK-92 (IL-2 2.5 ng/mL) [20]	6.62
NK-YS (IL-2 2.5 ng/mL) [21]	5.76
NKL (IL-2 2.5 ng/mL) [22]	8.82
SNK-6 (IL-2 2.5 ng/mL) [23]	7.71
YT (IL-2 2.5 ng/mL) [24]	5.78
[15]	3.3
[25]	2.14
[26]	3.59
[27]	0.95
[28]	0.27

N#CC1(c2ccc(NC(=O)c3cccnc3NCc3ccncc3)cc2)CCCC1 [Apatinib] (max concentration tested 10000 nM)
percent inhibition of viability [%]
Conditions	1 nM	10 nM	100 nM	1000 nM	10000 nM
DERL-7 (IL-2 2.5 ng/mL) [2]	-0.33	-0.49	-2.76	-4.82	1.97
IMC-1 (IL-2 20 ng/mL) [3]	-6.4	-0.28	-6.01	0.8	2.01
KAI3 (IL-2 2.5 ng/mL) [4]	3.83	2.76	6.74	10.3	12.3
KHYG-1 (IL-2 2.5 ng/mL) [5]	4.44	2.43	2.62	6.69	19
NK-92 (IL-2 2.5 ng/mL) [6]	-3.67	-7.24	2.24	10.8	52.7
NK-YS (IL-2 2.5 ng/mL) [7]	-1	2.11	4.05	9.52	12.6
NKL (IL-2 2.5 ng/mL) [8]	-16.2	-14.6	-14.8	-14.5	-12.3
SNK-6 (IL-2 2.5 ng/mL) [9]	21	12.9	7.35	12.6	28.4
YT (IL-2 2.5 ng/mL) [10]	-0.29	0.42	2.63	7.54	7.83
[1]	-1.56	-5.13	-0.99	0.76	2.66
[11]	-14.6	-10.1	-4.55	-2.69	6.98
[12]	-2.35	4.05	8.46	11.4	31.2
[13]	-4.33	-2.31	-5.54	-1.25	-5.6
[14]	-6.46	-8.45	-1.68	-7.82	1.12

Conditions	drug sensitivity score
DERL-7 (IL-2 2.5 ng/mL) [16]	0
IMC-1 (IL-2 20 ng/mL) [17]	0
KAI3 (IL-2 2.5 ng/mL) [18]	0.17
KHYG-1 (IL-2 2.5 ng/mL) [19]	0.9
NK-92 (IL-2 2.5 ng/mL) [20]	4.58
NK-YS (IL-2 2.5 ng/mL) [21]	0.26
NKL (IL-2 2.5 ng/mL) [22]	0
SNK-6 (IL-2 2.5 ng/mL) [23]	0
YT (IL-2 2.5 ng/mL) [24]	0
[15]	0
[25]	0
[26]	2.45
[27]	0
[28]	0
